Twelve compounds from ChEMBL document CHEMBL1134862, “Rational design of 4,5-disubstituted-5,7-dihydro-pyrrolo[2,3-d]pyrimidin-6-ones as a novel class of inhibitors of epidermal growth factor receptor (EGF-R) and Her2(p185(erbB)) tyrosine kinases” (Bioorg Med Chem Lett, 2002) can be followed below.

T1 sequence (P00533 whole entry): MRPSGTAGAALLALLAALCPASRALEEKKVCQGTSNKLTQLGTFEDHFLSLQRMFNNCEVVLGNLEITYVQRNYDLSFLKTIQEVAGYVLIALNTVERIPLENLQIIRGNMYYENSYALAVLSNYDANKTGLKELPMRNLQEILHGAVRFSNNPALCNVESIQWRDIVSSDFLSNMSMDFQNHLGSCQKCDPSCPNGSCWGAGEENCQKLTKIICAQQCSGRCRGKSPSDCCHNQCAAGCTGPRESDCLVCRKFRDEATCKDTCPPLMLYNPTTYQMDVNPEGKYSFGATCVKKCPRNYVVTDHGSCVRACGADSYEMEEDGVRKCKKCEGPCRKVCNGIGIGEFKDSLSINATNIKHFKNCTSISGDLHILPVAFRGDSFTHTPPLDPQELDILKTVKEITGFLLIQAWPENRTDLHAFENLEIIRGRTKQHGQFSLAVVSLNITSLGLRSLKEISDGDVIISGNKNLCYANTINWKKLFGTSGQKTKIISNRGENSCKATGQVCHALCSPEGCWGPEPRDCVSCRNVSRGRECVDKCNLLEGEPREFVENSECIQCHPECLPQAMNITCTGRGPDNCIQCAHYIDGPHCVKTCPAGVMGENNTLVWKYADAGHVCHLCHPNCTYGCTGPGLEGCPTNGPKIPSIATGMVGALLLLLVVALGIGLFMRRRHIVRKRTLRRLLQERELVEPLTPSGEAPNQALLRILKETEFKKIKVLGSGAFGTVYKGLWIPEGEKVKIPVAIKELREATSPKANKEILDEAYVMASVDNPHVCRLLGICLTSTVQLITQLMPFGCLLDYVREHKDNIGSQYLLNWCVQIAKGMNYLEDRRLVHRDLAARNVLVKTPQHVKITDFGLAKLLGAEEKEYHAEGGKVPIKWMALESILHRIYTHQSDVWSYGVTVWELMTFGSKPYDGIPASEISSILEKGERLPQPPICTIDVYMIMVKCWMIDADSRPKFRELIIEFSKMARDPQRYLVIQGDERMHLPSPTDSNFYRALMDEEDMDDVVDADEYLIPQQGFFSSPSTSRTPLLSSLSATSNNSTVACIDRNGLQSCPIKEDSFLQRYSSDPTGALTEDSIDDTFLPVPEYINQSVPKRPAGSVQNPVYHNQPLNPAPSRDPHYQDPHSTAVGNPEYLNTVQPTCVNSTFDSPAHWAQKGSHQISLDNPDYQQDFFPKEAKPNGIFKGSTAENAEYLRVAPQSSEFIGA

In one test the target is Vascular endothelial growth factor receptor 2 (Homo sapiens, UniProt P35968). As to the kind of experiment: Inhibition of tyrosine phosphorylation in cells expressing human VEGFR2 (Flk-1/KDR) kinase.
Sequence of Vascular endothelial growth factor receptor 2 (P35968 whole entry): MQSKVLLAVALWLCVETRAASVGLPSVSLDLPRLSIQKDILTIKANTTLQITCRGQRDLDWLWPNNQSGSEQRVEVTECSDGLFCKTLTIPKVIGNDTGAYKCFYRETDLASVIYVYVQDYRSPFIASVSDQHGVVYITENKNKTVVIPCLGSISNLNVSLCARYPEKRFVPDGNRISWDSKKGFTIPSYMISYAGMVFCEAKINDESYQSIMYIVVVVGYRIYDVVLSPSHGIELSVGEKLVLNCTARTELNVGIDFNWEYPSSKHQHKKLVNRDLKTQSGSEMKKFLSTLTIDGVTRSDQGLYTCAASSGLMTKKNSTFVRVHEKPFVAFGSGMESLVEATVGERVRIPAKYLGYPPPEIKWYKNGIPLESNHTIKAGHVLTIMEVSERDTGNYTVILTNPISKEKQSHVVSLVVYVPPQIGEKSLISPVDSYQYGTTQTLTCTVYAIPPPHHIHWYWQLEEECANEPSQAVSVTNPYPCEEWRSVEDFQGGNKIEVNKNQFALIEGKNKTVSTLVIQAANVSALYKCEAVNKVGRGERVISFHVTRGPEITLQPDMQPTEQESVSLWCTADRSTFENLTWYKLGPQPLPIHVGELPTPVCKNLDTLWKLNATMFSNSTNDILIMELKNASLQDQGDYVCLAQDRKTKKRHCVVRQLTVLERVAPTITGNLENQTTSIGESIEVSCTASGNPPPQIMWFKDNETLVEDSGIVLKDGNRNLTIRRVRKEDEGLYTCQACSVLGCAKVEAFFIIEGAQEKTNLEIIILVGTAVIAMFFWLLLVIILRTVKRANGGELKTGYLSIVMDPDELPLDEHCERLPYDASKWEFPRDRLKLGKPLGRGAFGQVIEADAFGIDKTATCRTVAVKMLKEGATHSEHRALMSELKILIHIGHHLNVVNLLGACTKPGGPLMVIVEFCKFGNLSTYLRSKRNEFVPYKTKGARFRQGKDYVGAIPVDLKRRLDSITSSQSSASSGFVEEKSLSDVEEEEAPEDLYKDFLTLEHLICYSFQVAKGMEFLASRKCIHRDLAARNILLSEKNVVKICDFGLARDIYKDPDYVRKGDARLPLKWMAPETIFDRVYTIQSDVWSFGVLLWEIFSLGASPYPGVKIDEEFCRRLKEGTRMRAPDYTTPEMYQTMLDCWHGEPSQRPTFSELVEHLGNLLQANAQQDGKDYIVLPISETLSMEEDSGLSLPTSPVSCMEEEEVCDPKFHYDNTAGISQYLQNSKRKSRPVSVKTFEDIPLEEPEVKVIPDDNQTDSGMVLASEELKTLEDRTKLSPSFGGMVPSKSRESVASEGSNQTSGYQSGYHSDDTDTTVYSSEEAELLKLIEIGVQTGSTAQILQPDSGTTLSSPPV
As to `Cc1cc(C(=O)N2CCOCC2)[nH]c1/C=C1\C(=O)Nc2ncnc(Nc3ccc4c(ccn4Cc4ccccc4)c3)c21`, inhibition was half-maximal at 2.05 µM (IC50).
On the same count and under the same terms, as for `Cc1cc(C(=O)N2CCOCC2)[nH]c1/C=C1\C(=O)Nc2ncnc(N3CCCCC3)c21`, the figure is above 20 µM.
On the same count and under the same terms, as for `Cc1cc(C(=O)NCCN2CCOCC2)[nH]c1/C=C1\C(=O)N(C)c2ncnc(Nc3ccc(F)c(Cl)c3)c21`, the figure is 10.1 µM.
Still for that read-out and setting: as for `C#Cc1cccc(Nc2ncnc3c2/C(=C/c2[nH]c(C(=O)NCCN4CCOCC4)cc2C)C(=O)N3)c1`, the figure is above 20 µM.
As for `Cc1[nH]c(/C=C2\C(=O)Nc3ncnc(Nc4ccc(F)c(Cl)c4)c32)c(C)c1CCC(=O)O`, the IC50 (usually the concentration that gives 50% inhibition) is above 20 µM.
Same read-out and setting: as for `Cc1cc(C(=O)O)[nH]c1/C=C1\C(=O)Nc2ncnc(Nc3ccc(F)c(Cl)c3)c21`, the figure is 8.92 µM.
On the same count and under the same terms, as for `Cc1cc(C)c(/C=C2\C(=O)N(C)c3ncnc(Nc4ccc(F)c(Cl)c4)c32)[nH]1`, the figure is 5.82 µM; as for `Cc1c(C(=O)N2CCN(C)CC2)c[nH]c1/C=C1\C(=O)Nc2ncnc(Nc3ccc(F)c(Cl)c3)c21`, above 20 µM; as for `CCN(CC)CC(O)CNC(=O)c1cc(C)c(/C=C2\C(=O)Nc3ncnc(Nc4ccc(F)c(Cl)c4)c32)[nH]1` (stereo not drawn), 0.36 µM.
Regarding `Cc1cc(/C=C2\C(=O)Nc3ncnc(Nc4ccc(F)c(Cl)c4)c32)[nH]c1C(=O)N1CCN(C)CC1`, the IC50 was above 20 µM.
The same measure, in the same setting: as for `Cc1cc(C(=O)N2CCOCC2)[nH]c1/C=C1\C(=O)Nc2ncnc(Nc3ccc4c(c3)CCC4)c21`, the figure is 3.46 µM.
On the same count and under the same terms, as for `CCN(CC)CCNC(=O)c1c(C)[nH]c(/C=C2\C(=O)Nc3ncnc(Nc4ccc(F)c(Cl)c4)c32)c1C`, the figure is 3.47 µM.

Another test deals with Receptor tyrosine-protein kinase erbB-2 (Homo sapiens, UniProt P04626). As to the kind of experiment: Inhibition of autophosphorylation of human Her (p185erbB) tyrosine kinase expressed in SKOV-3 cells. The format is functional, cell-based, SK-OV-3.
Sequence of Receptor tyrosine-protein kinase erbB-2 (P04626 whole entry): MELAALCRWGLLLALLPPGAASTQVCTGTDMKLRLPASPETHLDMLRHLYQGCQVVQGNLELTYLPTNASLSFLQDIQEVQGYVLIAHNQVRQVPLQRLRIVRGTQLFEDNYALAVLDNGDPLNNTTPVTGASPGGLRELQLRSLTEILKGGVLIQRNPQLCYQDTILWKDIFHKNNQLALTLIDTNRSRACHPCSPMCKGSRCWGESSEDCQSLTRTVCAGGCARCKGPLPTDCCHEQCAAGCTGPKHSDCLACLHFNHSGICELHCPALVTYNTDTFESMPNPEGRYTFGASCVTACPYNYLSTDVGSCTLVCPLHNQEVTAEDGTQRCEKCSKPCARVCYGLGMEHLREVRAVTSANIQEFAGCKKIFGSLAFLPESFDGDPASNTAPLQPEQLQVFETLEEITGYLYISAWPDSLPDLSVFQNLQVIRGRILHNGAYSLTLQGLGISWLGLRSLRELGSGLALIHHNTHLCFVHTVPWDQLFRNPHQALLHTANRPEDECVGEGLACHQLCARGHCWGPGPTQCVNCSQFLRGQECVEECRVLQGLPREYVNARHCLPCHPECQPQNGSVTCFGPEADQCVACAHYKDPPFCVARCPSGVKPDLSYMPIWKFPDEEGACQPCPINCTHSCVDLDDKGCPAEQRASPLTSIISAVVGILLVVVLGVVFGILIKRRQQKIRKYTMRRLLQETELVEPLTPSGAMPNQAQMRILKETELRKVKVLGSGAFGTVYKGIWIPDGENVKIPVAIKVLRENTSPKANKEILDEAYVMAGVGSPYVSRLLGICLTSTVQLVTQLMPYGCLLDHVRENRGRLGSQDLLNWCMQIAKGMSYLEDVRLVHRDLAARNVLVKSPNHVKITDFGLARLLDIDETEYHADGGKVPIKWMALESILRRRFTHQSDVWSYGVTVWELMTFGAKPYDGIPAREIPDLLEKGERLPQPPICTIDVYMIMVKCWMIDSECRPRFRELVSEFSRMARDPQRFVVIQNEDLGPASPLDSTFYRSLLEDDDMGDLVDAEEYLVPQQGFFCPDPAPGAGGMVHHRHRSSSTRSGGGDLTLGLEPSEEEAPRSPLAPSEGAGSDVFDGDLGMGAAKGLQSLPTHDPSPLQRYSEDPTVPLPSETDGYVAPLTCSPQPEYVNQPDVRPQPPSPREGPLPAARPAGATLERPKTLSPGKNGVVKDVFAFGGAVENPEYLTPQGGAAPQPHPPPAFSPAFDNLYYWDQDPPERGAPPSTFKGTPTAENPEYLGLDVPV
`Cc1cc(C(=O)N2CCOCC2)[nH]c1/C=C1\C(=O)Nc2ncnc(Nc3ccc4c(ccn4Cc4ccccc4)c3)c21` displayed an IC50 of 100 nM.
As to `C#Cc1cccc(Nc2ncnc3c2/C(=C/c2[nH]c(C(=O)NCCN4CCOCC4)cc2C)C(=O)N3)c1`, the IC50 came out at 40 nM.
The same measure, in the same setting: as for `Cc1cc(C(=O)O)[nH]c1/C=C1\C(=O)Nc2ncnc(Nc3ccc(F)c(Cl)c3)c21`, the figure is above 5000 nM.
On the same count and under the same terms, as for `Cc1cc(C(=O)N2CCOCC2)[nH]c1/C=C1\C(=O)Nc2ncnc(Nc3ccc4c(c3)CCC4)c21`, the figure is above 5000 nM.

Another test has as its target T1, Epidermal growth factor receptor (Homo sapiens, UniProt P00533). As to the kind of experiment: Inhibition of autophosphorylation of human epidermal growth factor-receptor (EGF-R) expressed in A431 cells. The format is functional, cell-based, A-431.
With `Cc1cc(C(=O)N2CCOCC2)[nH]c1/C=C1\C(=O)Nc2ncnc(Nc3ccc4c(ccn4Cc4ccccc4)c3)c21`, half-maximal inhibition (IC50) was put at 100 nM.
For the compound `C#Cc1cccc(Nc2ncnc3c2/C(=C/c2[nH]c(C(=O)NCCN4CCOCC4)cc2C)C(=O)N3)c1`, half-maximal inhibition (IC50) required 40 nM.
Still for that read-out and setting: as for `Cc1cc(C(=O)O)[nH]c1/C=C1\C(=O)Nc2ncnc(Nc3ccc(F)c(Cl)c3)c21`, the figure is above 5000 nM; as for `Cc1cc(C(=O)N2CCOCC2)[nH]c1/C=C1\C(=O)Nc2ncnc(Nc3ccc4c(c3)CCC4)c21`, 5000 nM.

The target of another test is T1, Epidermal growth factor receptor. Kind of test: Inhibitory activity towards tyrosine phosphorylation for the epidermal growth factor-receptor kinase.
Compound `Cc1cc(C(=O)N2CCOCC2)[nH]c1/C=C1\C(=O)Nc2ncnc(Nc3ccc4c(ccn4Cc4ccccc4)c3)c21` registered an IC50 of 4.5 nM.
With `Cc1cc(C(=O)N2CCOCC2)[nH]c1/C=C1\C(=O)Nc2ncnc(N3CCCCC3)c21`, the IC50 was above 20000 nM.
As for `Cc1cc(C(=O)NCCN2CCOCC2)[nH]c1/C=C1\C(=O)N(C)c2ncnc(Nc3ccc(F)c(Cl)c3)c21`, it took 5310 nM to reach half-maximal inhibition (IC50).
The same measure, in the same setting: as for `C#Cc1cccc(Nc2ncnc3c2/C(=C/c2[nH]c(C(=O)NCCN4CCOCC4)cc2C)C(=O)N3)c1`, the figure is 18 nM; as for `Cc1[nH]c(/C=C2\C(=O)Nc3ncnc(Nc4ccc(F)c(Cl)c4)c32)c(C)c1CCC(=O)O`, 180 nM; as for `Cc1cc(C(=O)O)[nH]c1/C=C1\C(=O)Nc2ncnc(Nc3ccc(F)c(Cl)c3)c21`, 29 nM.
Still for that read-out and setting: as for `Cc1cc(C)c(/C=C2\C(=O)N(C)c3ncnc(Nc4ccc(F)c(Cl)c4)c32)[nH]1`, the figure is above 20000 nM; as for `Cc1c(C(=O)N2CCN(C)CC2)c[nH]c1/C=C1\C(=O)Nc2ncnc(Nc3ccc(F)c(Cl)c3)c21`, 410 nM; as for `CCN(CC)CC(O)CNC(=O)c1cc(C)c(/C=C2\C(=O)Nc3ncnc(Nc4ccc(F)c(Cl)c4)c32)[nH]1` (stereo not drawn), 0.45 nM.
Same read-out and setting: as for `Cc1cc(/C=C2\C(=O)Nc3ncnc(Nc4ccc(F)c(Cl)c4)c32)[nH]c1C(=O)N1CCN(C)CC1`, the figure is 210 nM; as for `Cc1cc(C(=O)N2CCOCC2)[nH]c1/C=C1\C(=O)Nc2ncnc(Nc3ccc4c(c3)CCC4)c21`, 1410 nM.
In turn, `CCN(CC)CCNC(=O)c1c(C)[nH]c(/C=C2\C(=O)Nc3ncnc(Nc4ccc(F)c(Cl)c4)c32)c1C` displayed an IC50 of 200 nM. This IC50 is about 7-fold lower than that of the compound before.

For the next test, the target named is Platelet-derived growth factor receptor beta (Homo sapiens, UniProt P09619). As to the kind of experiment: Inhibitory activity towards tyrosine phosphorylation of PDGF-receptor beta kinase.
Sequence of Platelet-derived growth factor receptor beta (P09619 whole entry): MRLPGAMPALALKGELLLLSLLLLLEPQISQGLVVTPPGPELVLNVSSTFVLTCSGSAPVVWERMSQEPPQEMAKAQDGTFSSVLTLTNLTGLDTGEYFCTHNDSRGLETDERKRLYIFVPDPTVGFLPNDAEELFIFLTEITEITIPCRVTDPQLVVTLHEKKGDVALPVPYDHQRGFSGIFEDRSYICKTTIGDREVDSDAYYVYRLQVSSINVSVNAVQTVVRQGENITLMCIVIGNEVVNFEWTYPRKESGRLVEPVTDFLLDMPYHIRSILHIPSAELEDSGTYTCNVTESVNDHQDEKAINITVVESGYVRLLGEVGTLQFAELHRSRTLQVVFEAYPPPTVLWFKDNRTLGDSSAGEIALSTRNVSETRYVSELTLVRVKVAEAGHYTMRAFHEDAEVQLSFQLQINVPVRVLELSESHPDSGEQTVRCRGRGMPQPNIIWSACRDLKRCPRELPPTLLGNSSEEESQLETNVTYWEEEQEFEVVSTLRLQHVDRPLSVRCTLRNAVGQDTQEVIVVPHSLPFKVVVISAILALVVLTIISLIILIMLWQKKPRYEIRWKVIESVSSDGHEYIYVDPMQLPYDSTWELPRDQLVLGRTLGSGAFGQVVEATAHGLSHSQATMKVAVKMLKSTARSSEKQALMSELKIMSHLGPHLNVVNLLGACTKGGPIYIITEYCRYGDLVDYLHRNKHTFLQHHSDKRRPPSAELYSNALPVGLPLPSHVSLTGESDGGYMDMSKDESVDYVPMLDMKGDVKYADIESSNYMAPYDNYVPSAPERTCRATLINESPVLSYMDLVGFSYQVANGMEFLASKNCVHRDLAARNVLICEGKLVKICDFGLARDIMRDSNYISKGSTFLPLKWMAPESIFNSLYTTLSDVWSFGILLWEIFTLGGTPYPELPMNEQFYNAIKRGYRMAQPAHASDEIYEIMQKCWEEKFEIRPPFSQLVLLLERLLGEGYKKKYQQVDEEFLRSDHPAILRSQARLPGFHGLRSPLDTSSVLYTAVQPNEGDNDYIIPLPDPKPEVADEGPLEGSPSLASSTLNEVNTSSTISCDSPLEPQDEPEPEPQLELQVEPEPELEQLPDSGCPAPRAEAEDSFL
Take `Cc1cc(C(=O)N2CCOCC2)[nH]c1/C=C1\C(=O)Nc2ncnc(Nc3ccc4c(ccn4Cc4ccccc4)c3)c21`: the IC50 was above 20 µM.
Compound `Cc1cc(C(=O)N2CCOCC2)[nH]c1/C=C1\C(=O)Nc2ncnc(N3CCCCC3)c21` came in with an IC50 above 20 µM.
Compound `Cc1cc(C(=O)NCCN2CCOCC2)[nH]c1/C=C1\C(=O)N(C)c2ncnc(Nc3ccc(F)c(Cl)c3)c21` showed an IC50 above 20 µM.
Still for that read-out and setting: as for `C#Cc1cccc(Nc2ncnc3c2/C(=C/c2[nH]c(C(=O)NCCN4CCOCC4)cc2C)C(=O)N3)c1`, the figure is above 20 µM; as for `Cc1[nH]c(/C=C2\C(=O)Nc3ncnc(Nc4ccc(F)c(Cl)c4)c32)c(C)c1CCC(=O)O`, above 20 µM.
The same measure, in the same setting: as for `Cc1cc(C(=O)O)[nH]c1/C=C1\C(=O)Nc2ncnc(Nc3ccc(F)c(Cl)c3)c21`, the figure is above 20 µM; as for `Cc1cc(C)c(/C=C2\C(=O)N(C)c3ncnc(Nc4ccc(F)c(Cl)c4)c32)[nH]1`, above 20 µM.
In the case of `Cc1c(C(=O)N2CCN(C)CC2)c[nH]c1/C=C1\C(=O)Nc2ncnc(Nc3ccc(F)c(Cl)c3)c21`, the IC50 was above 20 µM.
Compound `Cc1cc(/C=C2\C(=O)Nc3ncnc(Nc4ccc(F)c(Cl)c4)c32)[nH]c1C(=O)N1CCN(C)CC1` returned an IC50 above 20 µM.
`Cc1cc(C(=O)N2CCOCC2)[nH]c1/C=C1\C(=O)Nc2ncnc(Nc3ccc4c(c3)CCC4)c21` yielded a half-maximal inhibitory concentration (IC50) above 20 µM.
`CCN(CC)CCNC(=O)c1c(C)[nH]c(/C=C2\C(=O)Nc3ncnc(Nc4ccc(F)c(Cl)c4)c32)c1C` gave an IC50 above 20 µM.
